From article PMC10353187, “Discovery of a new potent oxindole multi-kinase inhibitor among a series of designed 3-alkenyl-oxindoles with ancillary carbonic anhydrase inhibitory activity as antiproliferative agents” (BMC Chemistry, 2023)

Tests used:
PC-3 = test: NCI-60 single-dose antiproliferative assay (SRB); format: cell-based; settings: Homo sapiens; 10 μM single dose; PC-3, Prostate cancer; read-out: Cell Growth inhibition Percent
Description: (§1) From the newly synthesized compounds, eleven compounds (4c, 4d, 5, 9a, 9b, 11a, 11b, 13b, 13c, 15b, and 15c) were selected by the National Cancer Institute (NCI) Developmental Therapeutics Program (DTP), Bethesda, Maryland, USA for the in vitro anti-proliferative activity evaluation. The selected compounds were examined at 10 μM dose against the NCI 60-cell line panel. This panel consists of nine cell line groups of leukemia, non-small cell lung carcinoma (NSCLC), melanoma, colon, CNS, ovarian, renal, prostate, and breast cancers. The results are reported as mean-graph of the percent growth relative to control and presented as percentage growth inhibition (GI%), furthermore, mean GI% of each compound over all panel cell lines was calculated (Table 1; Additional file 1; S3: In vitro biological activity).
(§2) From the newly synthesized compounds, eleven compounds were selected by the National Cancer Institute (NCI) Developmental Therapeutics Program (DTP), Bethesda, Maryland, USA for the in vitro anti-proliferative activity evaluation (For further details see supplementary materials).
(§3) NCI In-vitro Cancer Screening is a two-phase procedure that starts with the assessment of all compounds against the sixty NCI cell line panel depicting leukemia, NSCLC, CNS cancer, melanoma, prostate cancer, breast cancer, renal cancer, colon cancer and ovarian cancer cell lines at a single point of 10μM. The output from the single-dose screen is reportable as a mean graph.
(§4) The human tumor cell lines of the cancer screening panel were grown in RPMI 1640 medium containing 5% fetal bovine serum and 2 mM L-glutamine. For a typical screening experiment, cells were inoculated into 96 well microtiter plates in […] at plating densities ranging from 5000 to 40,000 cells/well depending on the doubling time of individual cell lines. After cell inoculation, the microtiter plates were incubated at 37 °C, 5% CO2, 95% air and 100% relative humidity for 24 h prior to addition of experimental drugs. After 24 h, two plates of each cell line were fixed in situ with trichloroacetic acid (TCA), to represent a measurement of the cell population for each cell line at the time of drug addition (Tz). Experimental drugs were solubilized in dimethyl sulfoxide at 400-fold the desired final maximum test concentration and stored frozen prior to use. At the time of drug addition, an aliquot of frozen concentrate was thawed and diluted to twice the desired final maximum test concentration with complete medium containing 50 µg/ml gentamicin. Aliquot of 100 µl of the drug dilution was added to the appropriate microtiter wells already containing 100 µl of medium, resulting in the required final drug concentration (10 µM). Triplicate wells were prepared for each individual dose. Following drug addition, the plates were incubated for an additional 48 h at 37 °C, 5% CO2, 95% air, and 100% relative humidity. For adherent cells, the assay was terminated by the addition of cold TCA. Cells were fixed in situ by the gentle addition of 50 µl of cold 50% (w/v) TCA (final concentration, 10% TCA) and incubated for 60 min at 4 °C. The supernatant was discarded, and the plates were washed five times with tap water and air dried. Sulforhodamine B (SRB) solution (100 µl) at 0.4% (w/v) in 1% acetic acid was added to each well, and plates were incubated for 10 min at room temperature. After staining, unbound dye was removed by washing five times with 1% acetic acid and the plates were air dried. Bound stain was subsequently solubilized with 10 mM trizma base, and the absorbance was read on an automated plate reader at a wavelength of 515 nm. For suspension cells, the methodology was the same except that the assay was terminated by fixing settled cells at the bottom of the wells by gently adding 50 µl of 80% TCA (final concentration, 16% TCA). […]

LOX IMVI = test: NCI-60 single-dose antiproliferative assay (SRB); format: cell-based; settings: Homo sapiens, 10 μM single dose, Melanoma, read-out: Cell Growth inhibition Percent
Description: as §1, §2, §3, §4

MDA-MB-231/ATCC = test: NCI-60 single-dose antiproliferative assay (SRB); format: cell-based; settings: Homo sapiens, 10 μM single dose, Breast cancer, read-out: Cell Growth inhibition Percent
Description: as §1, §2, §3, §4

OVCAR-4 = test: NCI-60 single-dose antiproliferative assay (SRB); format: cell-based; settings: Homo sapiens; 10 μM single dose; OVCAR-4, Ovarian Cancer; read-out: Cell Growth inhibition Percent
Description: as §1, §2, §3, §4

SR = test: NCI-60 single-dose antiproliferative assay (SRB); format: cell-based; settings: Homo sapiens, 10 μM single dose, Leukemia, read-out: Cell Growth inhibition Percent
Description: as §1, §2, §3, §4

SNB-75 = test: NCI-60 single-dose antiproliferative assay (SRB); format: cell-based; settings: Homo sapiens; 10 μM single dose; SNB-75, CNS cancer; read-out: Cell Growth inhibition Percent
Description: as §1, §2, §3, §4

IGROV1 = test: NCI-60 single-dose antiproliferative assay (SRB); format: cell-based; settings: Homo sapiens, IGROV-1; 10 μM single dose; IGROV1, Ovarian Cancer; read-out: Cell Growth inhibition Percent
Description: as §1, §2, §3, §4

HOP-62 = test: NCI-60 single-dose antiproliferative assay (SRB); format: cell-based; settings: Homo sapiens; 10 μM single dose; HOP-62, Non-small cell lung cancer; read-out: Cell Growth inhibition Percent
Description: as §1, §2, §3, §4

NCI-H23 = test: NCI-60 single-dose antiproliferative assay (SRB); format: cell-based; settings: Homo sapiens; 10 μM single dose; NCI-H23, Non-small cell lung cancer; read-out: Cell Growth inhibition Percent
Description: as §1, §2, §3, §4

CAKI-1 = test: NCI-60 single-dose antiproliferative assay (SRB); format: cell-based; settings: Homo sapiens; 10 μM single dose; CAKI-1, Renal cancer; read-out: Cell Growth inhibition Percent
Description: as §1, §2, §3, §4

SF-268 = test: NCI-60 single-dose antiproliferative assay (SRB); format: cell-based; settings: Homo sapiens; 10 μM single dose; SF-268, CNS cancer; read-out: Cell Growth inhibition Percent
Description: as §1, §2, §3, §4

M14 = test: NCI-60 single-dose antiproliferative assay (SRB); format: cell-based; settings: Homo sapiens; 10 μM single dose; M14, Melanoma; read-out: Cell Growth inhibition Percent
Description: as §1, §2, §3, §4

EKVX = test: NCI-60 single-dose antiproliferative assay (SRB); format: cell-based; settings: Homo sapiens, 10 μM single dose, Non-small cell lung cancer, read-out: Cell Growth inhibition Percent
Description: as §1, §2, §3, §4

HOP-92 = test: NCI-60 single-dose antiproliferative assay (SRB); format: cell-based; settings: Homo sapiens; 10 μM single dose; HOP-92, Non-small cell lung cancer; read-out: Cell Growth inhibition Percent
Description: as §1, §2, §3, §4

ACHN = test: NCI-60 single-dose antiproliferative assay (SRB); format: cell-based; settings: Homo sapiens, 10 μM single dose, Renal cancer, read-out: Cell Growth inhibition Percent
Description: as §1, §2, §3, §4

SK-MEL-5 = test: NCI-60 single-dose antiproliferative assay (SRB); format: cell-based; settings: Homo sapiens; 10 μM single dose; SK-MEL-5, Melanoma; read-out: Cell Growth inhibition Percent
Description: as §1, §2, §3, §4

MCF7 = test: NCI-60 single-dose antiproliferative assay (SRB); format: cell-based; settings: Homo sapiens; 10 μM single dose; MCF7, Breast cancer; read-out: Cell Growth inhibition Percent
Description: as §1, §2, §3, §4

NCI 60 cancer cell lines = test: NCI-60 single-dose antiproliferative assay, mean over panel; format: cell-based; settings: Homo sapiens; 10 μM single dose; mean over all NCI panel cell lines; read-out: MEAN % Growth inhibition
Description: as §1, §2, §3, §4

| Structure (SMILES) | melting point | inhibition at 10 µM (PC-3) | inhibition at 10 µM (LOX IMVI) | inhibition at 10 µM (MDA-MB-231/ATCC) | inhibition at 10 µM (OVCAR-4) | inhibition at 10 µM (SR) | inhibition at 10 µM (SNB-75) | inhibition at 10 µM (IGROV1) | inhibition at 10 µM (HOP-62) | inhibition at 10 µM (NCI-H23) | inhibition at 10 µM (CAKI-1) | inhibition at 10 µM (SF-268) | inhibition at 10 µM (M14) | inhibition at 10 µM (EKVX) | inhibition at 10 µM (HOP-92) | inhibition at 10 µM (ACHN) | inhibition at 10 µM (SK-MEL-5) | inhibition at 10 µM (MCF7) | inhibition at 10 µM (NCI 60 cancer cell lines) |
| --- | --- | --- | --- | --- | --- | --- | --- | --- | --- | --- | --- | --- | --- | --- | --- | --- | --- | --- | --- |
| O=C1Nc2ccccc2C1=CNc1ccc(C(=O)O)cc1 [Compound 4c, 4-{[(2-Oxoindolin-3-ylidene)methyl]amino}benzoic acid] | > 300 °C | 7.71% | 6.93% | 4.54% | 13.3% | 4.7% | 44.3% | 24.1% | 32% | 7.13% | 29.1% | 16.4% | 2.15% | 24.3% | 16.4% | 1.58% | 1.74% | 1.59% | 3.71% |
| NS(=O)(=O)c1nnc(NC=C2C(=O)Nc3ccccc32)s1 [Compound 4d, 5-{[(2-Oxoindolin-3-ylidene)methyl]amino}-1,3,4-thiadiazole-2-sulfonamide] | 210 to 216 °C | 10.7% |  | 7.66% | 1.55% | 1.71% | 18.8% | 23.5% | 13.4% | 3.7% | 13.5% |  | 6.04% | 15.8% | 11.9% | 6.28% | 1.52% | 12.4% |  |
| NS(=O)(=O)N/C=C1/C(=O)Nc2ccccc21 [Compound 5, 3-(sulfamidmethylene)indoline-2-one] | 158 to 160 °C | 5.36% |  | 5.14% |  |  | 16.5% | 18.6% | 9.49% | 13.3% | 11.2% | 2.04% | 2.01% | 18.8% | 11% | 10.9% | 1.04% | 6.19% |  |
| NS(=O)(=O)c1ccc(NCc2ccc(NC=C3C(=O)Nc4ccccc43)cc2)cc1 [Compound 11a, 4-{[4-({[2-Oxoindolin-3-ylidene]methyl}amino)benzyl]amino}benzenesulfonamide] | 195 to 200 °C | 7.36% | 3.3% | 16.5% | 12.6% | 18.7% | 32.8% | 32.7% | 30.5% | 12% | 34.7% | 11.3% |  | 47.4% |  | 7.22% | 5.94% | 23% | 2.58% |
| O=C1Nc2ccccc2C1=CNc1ccc(CNc2ccc(S(=O)(=O)Nc3ncccn3)cc2)cc1 [Compound 11b, 4-{[4-({[2-Oxoindolin-3-ylidene]methyl}amino)benzyl]amino}-N-(pyrimidin-2-yl)benzenesulfonamide] |  | 14.2% | 8.3% | 8.34% | 11.5% | 42.2% | 16.6% | 23.5% | 11.3% | 17.4% | 48.4% | 1.02% | 0.4% | 16% | 15.4% | 16.7% | 15.2% | 37.2% | 7.38% |
| O=C1Nc2ccccc2C1=CNc1ccc(C(=O)C=CNc2nccs2)cc1 [Compound 13c, 3-{[(4-{3-[Thiazol-2-ylamino]acryloyl}phenyl)amino]methylene}indolin-2-one] | 260 to 262 °C | 15.3% | 9.06% | 10.7% | 3.49% | 6% |  | 5.94% | 12% | 25.9% | 30.8% |  |  | 16.8% | 11.4% |  | 5.29% | 28.1% | 3.28% |
| O=C(Nc1ccc(NC=C2C(=O)Nc3ccccc32)cc1)Nc1nccs1 [Compound 15c, 1-{4-[((2-Oxoindolin-3-ylidene)methyl)amino]phenyl}-3-(thiazol-2-yl)urea] |  | 31.4% | 64.9% | 52% | 59.4% | 89.3% | 66.6% | 70.5% | 62.7% | 62.2% | 67.1% | 22.8% | 81.5% | 65.4% | 50.2% | 59.3% | 73.2% | 77.3% | 61.8% |
